Read-outs that look alike come from different tables or passages of the source.
How the values were obtained:
[1] = Kondo et al. 1994, susceptibility to humidity/water, cited from earlier work
[2] = Accelerated ICH stability test with pure solid form II, polymorphic transformation followed by FT-IR in KBr; format: physicochemical; conditions: 40°±2C and 75±5% relative humidity, over 6 months
From the text: For detectable polymorphic transformations is intended transformations visible from changes of the FT-IR spectrum of form II of torsemide registered in KBr. Specifically, the formation of a contamination of 1% or greater (by weight) of form I of torsemide in a sample of pure form II of torsemide would be a detectable polymorphic transformation by means of the relative change of the FT-IR spectrum registered in KBr which would imply the appearance of a peak in the position at 1697 cm^−1. Accelerated Test with Pure Solid Form II at 40°±2C and 75±5% of Relative Humidity. This type of test which is prescribed according to ICH (Q1A, “Stability testing of new Drug Substances and new Drug Products”, 1st edition Oct. 27, 1997 and 2nd edition Nov. 8, 2000) allows, according to internationally recognised procedures, to extrapolate the results obtained with this accelerated test to a mock storage period at room temperature for over 2 years. The inventors of the present patent application have subjected a series of pure samples of form II of torsemide to this test, and have assayed with the frequency and to the prescribed terms, the possible polymorphic transformations of the samples through registration of the FT-IR spectra in KBr on a Jasco apparatus.

[3] = Transformation of form II suspended in water (strong heating or prolonged treatment); format: physicochemical; conditions: suspended in water and strongly heated, or suspended in water and subjected to prolonged treatment
From the text: 27, 1997 and 2nd edition Nov. 8, 2000) and recognised on the world scale for the evaluation of the stability of pharmaceutical substances.
Form I of torsemide is obtainable from form II of torsemide as above according to the instructions of Kondo, namely by suspension of an aliquot of form II in water (approx. 23 parts by weight) and subsequent stirring for 20 days at room temperature. The melting point of form I of torsemide, used by the inventors of the present patent application, measured with a Büchi B-540 according to USP class 1a (temperature increments of 1° C.±0.5° C./min starting from 10° C. from the expected melting point, inserting the sample at 5° C. from the melting point, then 1° C.±0.5° C./min until reaching the melting point), is 160.1°–160.5° C.

[4] = Prolonged ICH stability test with pure solid form II, polymorphic transformation followed by FT-IR in KBr; format: physicochemical; conditions: 25°±2C and 60±5% relative humidity, after 13 months
Description: Prolonged Test with Pure Solid Form II at 25°±2C and 60±5% of Relative Humidity. This type of test which is prescribed according to ICH (Q1A, “Stability testing of new Drug Substances and new Drug Products”, 1st edition Oct. 27, 1997 and 2nd edition Nov. 8, 2000) follows possible degradation of the samples under more mild conditions, but over prolonged periods. The inventors of the present patent application have subjected a series of pure samples of form II of torsemide to this test, and have assayed with the frequency and to the prescribed terms, the possible polymorphic transformations of the samples through the registration of the FT-IR spectra in KBr on the Jasco apparatus.

[5] = Drastic test with pure solid form II at 80° C. for two days in the absence of light; format: physicochemical
Description: Drastic Test with Pure Solid Form II at 80° C. for Two Days (Carried Out in the Absence of Light).

SMILES | relative stability of the polymorphic form [1] | polymorphic transformation (FT-IR in KBr, Jasco) [2] | polymorphic transformation in aqueous suspension [3] | polymorphic transformation (FT-IR in KBr, Jasco) [4] | polymorphic transformation [5] | relative stability of the polymorphic form ([1]; listed as form II)
Cc1cccc(Nc2ccncc2S(=O)(=O)NC(=O)NC(C)C)c1 [form I, 1-isopropyl-3-[(4-m-toluidino-3-pyridyl)sulphonyl]-urea] | sufficiently stable |  |  |  |  | 
Cc1cccc(Nc2ccncc2S(=O)(=O)NC(=O)NC(C)C)c1 [form II of torsemide, 1-isopropyl-3-[(4-m-toluidino-3-pyridyl)sulphonyl]-urea] |  | no detectable polymorphic transformation | transforms into form I | could not see any detectable polymorphic transformation | does not show a detectable polymorphic transformation | poorly stable

Reference: patent US7034159B2, “Pharmaceutical compositions comprising 1-isopropyl-3-[(4-m-toluidino-3-pyridyl)sulphonyl]-urea as active ingredient” (Cosma S.p.A., priority 2002, dated 2006)
